Laboratory results reported in ChEMBL document CHEMBL1154073, “Combining selectivity and affinity predictions using an integrated Support Vector Machine (SVM) approach: An alternative tool to discriminate between the human adenosine A(2A) and A(3) receptor pyrazolo-triazolo-pyrimidine antagonists binding sites” (Bioorg Med Chem, 2009).

What was measured:
[1] = biological target: T1, Adenosine receptor A1 (Homo sapiens, UniProt P30542); experiment: Displacement of [3H]CCPA from human adenosine A1 receptor expressed in CHO cells; type: cell-based
T1 sequence (P30542 whole entry): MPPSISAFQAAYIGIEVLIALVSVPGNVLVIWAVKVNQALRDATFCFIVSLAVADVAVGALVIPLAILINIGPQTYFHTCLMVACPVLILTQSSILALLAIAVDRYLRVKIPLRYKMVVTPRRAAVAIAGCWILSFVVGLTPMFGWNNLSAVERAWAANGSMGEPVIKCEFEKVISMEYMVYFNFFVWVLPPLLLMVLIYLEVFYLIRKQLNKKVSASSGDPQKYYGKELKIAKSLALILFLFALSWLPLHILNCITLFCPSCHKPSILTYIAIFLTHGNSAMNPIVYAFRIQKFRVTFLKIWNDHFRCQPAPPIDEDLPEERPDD

[2] = biological target: T2, Adenosine receptor A2b (Homo sapiens, UniProt P29275); experiment: Antagonist activity at human adenosine A2B receptor expressed in CHO cells assessed as inhibition of NECA-induced adenylyl cyclase activity; type: functional, cell-based
T2 sequence (P29275 whole entry): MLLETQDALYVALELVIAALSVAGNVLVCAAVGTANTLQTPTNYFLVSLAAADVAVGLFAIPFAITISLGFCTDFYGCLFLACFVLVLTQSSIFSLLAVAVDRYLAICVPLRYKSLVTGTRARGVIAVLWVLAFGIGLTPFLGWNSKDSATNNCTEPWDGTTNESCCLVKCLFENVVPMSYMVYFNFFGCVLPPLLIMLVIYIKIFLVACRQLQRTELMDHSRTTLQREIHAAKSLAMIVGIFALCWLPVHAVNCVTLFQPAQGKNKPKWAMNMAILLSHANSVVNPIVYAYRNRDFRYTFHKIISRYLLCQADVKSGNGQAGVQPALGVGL

[3] = biological target: T3, Adenosine receptor A3 (Homo sapiens, UniProt P0DMS8); experiment: Displacement of [3H]NECA from human adenosine A3 receptor expressed in CHO cells; type: cell-based
T3 sequence (P0DMS8 whole entry): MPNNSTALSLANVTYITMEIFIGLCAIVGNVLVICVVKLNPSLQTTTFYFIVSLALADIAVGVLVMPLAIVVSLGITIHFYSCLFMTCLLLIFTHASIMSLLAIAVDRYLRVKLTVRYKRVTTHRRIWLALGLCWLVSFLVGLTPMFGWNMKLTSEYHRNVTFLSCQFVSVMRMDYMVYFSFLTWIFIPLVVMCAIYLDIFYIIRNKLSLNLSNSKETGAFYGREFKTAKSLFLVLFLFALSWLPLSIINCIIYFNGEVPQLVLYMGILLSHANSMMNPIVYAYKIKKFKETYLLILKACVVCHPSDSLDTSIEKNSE

[4] = biological target: Adenosine receptor A2a (Homo sapiens, UniProt P29274); experiment: biochemical
Sequence of Adenosine receptor A2a (P29274 whole entry): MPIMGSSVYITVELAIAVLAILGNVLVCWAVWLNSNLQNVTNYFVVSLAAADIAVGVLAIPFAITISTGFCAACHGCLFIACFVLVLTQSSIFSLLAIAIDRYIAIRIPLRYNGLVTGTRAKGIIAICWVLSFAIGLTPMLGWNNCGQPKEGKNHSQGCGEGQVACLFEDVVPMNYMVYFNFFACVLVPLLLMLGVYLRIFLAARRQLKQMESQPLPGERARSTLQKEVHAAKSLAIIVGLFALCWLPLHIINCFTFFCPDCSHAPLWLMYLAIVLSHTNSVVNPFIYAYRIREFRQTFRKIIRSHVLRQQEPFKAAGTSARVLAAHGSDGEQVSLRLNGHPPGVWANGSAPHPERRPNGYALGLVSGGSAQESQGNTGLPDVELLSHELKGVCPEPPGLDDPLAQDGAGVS
Description: Displacement of [3H]NECA from human adenosine A2A receptor expressed in CHO cells

Row | SMILES | Ki [1] | IC50 [2] | Ki [3] | Ki [4]
1 | CCn1cc2c(nc(NC(=O)Cc3cccc4ccccc34)n3nc(-c4ccco4)nc23)n1 | 596 nM | > 50000 nM | 3.05 nM | 74.6 nM
2 | Cn1cc2c(nc(NC(=O)Cc3ccc(C(F)(F)F)cc3)n3nc(-c4ccco4)nc23)n1 | 768 nM | > 10000 nM | 1.22 nM | 75.9 nM
3 | Cn1cc2c(nc(NC(=O)Cc3ccc(Cl)cc3)n3nc(-c4ccco4)nc23)n1 | 1850 nM | > 50000 nM | 12.7 nM | 156 nM
4 | O=C(Cc1ccc2ccccc2c1)Nc1nc2nn(CCCc3ccccc3)cc2c2nc(-c3ccco3)nn12 | 241 nM | > 50000 nM | 717 nM | 73.6 nM
5 | Cn1cc2c(nc(NC(=O)Cc3c(Cl)cccc3Cl)n3nc(-c4ccco4)nc23)n1 | 908 nM | 6450 nM | 44.4 nM | 45.2 nM
6 | CCCCn1cc2c(nc(NC(=O)Cc3ccsc3)n3nc(-c4ccco4)nc23)n1 | 25.5 nM | 906 nM | 189 nM | 3.13 nM
7 | CCn1cc2c(nc(NC(=O)Cc3ccsc3)n3nc(-c4ccco4)nc23)n1 | 154 nM | 9370 nM | 765 nM | 23 nM
8 | CC(C)CCn1cc2c(nc(NC(=O)Cc3cccc(Cl)c3)n3nc(-c4ccco4)nc23)n1 | 13.7 nM | 1390 nM | 273 nM | 1.86 nM
9 | CCn1cc2c(nc(NC(=O)Cc3ccc(-c4ccccc4)cc3)n3nc(-c4ccco4)nc23)n1 | 557 nM | > 50000 nM | 14.2 nM | 70.9 nM
10 | O=C(Cc1ccc(Cl)cc1)Nc1nc2nn(CCCc3ccccc3)cc2c2nc(-c3ccco3)nn12 | 256 nM | > 10000 nM | 30.5 nM | 89.9 nM
11 | CCn1cc2c(nc(NC(=O)Cc3cccs3)n3nc(-c4ccco4)nc23)n1 | 148 nM | 15000 nM | 196 nM | 15.9 nM
12 | O=C(Cc1ccc(-c2ccccc2)cc1)Nc1nc2nn(CCCc3ccccc3)cc2c2nc(-c3ccco3)nn12 | 1170 nM | > 100000 nM | 410 nM | 256 nM
13 | CC(C)CCn1cc2c(nc(NC(=O)C(c3ccccc3)c3ccccc3)n3nc(-c4ccco4)nc23)n1 | 441 nM | > 10000 nM | 5.86 nM | 159 nM
14 | CCCn1cc2c(nc(NC(=O)Cc3ccc4ccccc4c3)n3nc(-c4ccco4)nc23)n1 | 160 nM | 5370 nM | 95.9 nM | 7.99 nM
15 | Cn1cc2c(nc(NC(=O)Cc3ccc(-c4ccccc4)cc3)n3nc(-c4ccco4)nc23)n1 | 1460 nM | > 10000 nM | 11.2 nM | 193 nM
16 | O=C(Cc1ccc2ccccc2c1)Nc1nc2nn(CCc3ccccc3)cc2c2nc(-c3ccco3)nn12 | 57.5 nM | > 50000 nM | 180 nM | 42.1 nM
17 | CC(C)CCn1cc2c(nc(NC(=O)Cc3c(Cl)cccc3Cl)n3nc(-c4ccco4)nc23)n1 | 121 nM | 1440 nM | 207 nM | 18.7 nM
18 | O=C(Nc1nc2nn(CCc3ccccc3)cc2c2nc(-c3ccco3)nn12)C(c1ccccc1)c1ccccc1 | 115 nM | 5840 nM | 6.49 nM | 53.1 nM
19 | Cn1cc2c(nc(NC(=O)Cc3cccc(Cl)c3)n3nc(-c4ccco4)nc23)n1 | 410 nM | 8960 nM | 1.94 nM | 30.5 nM
20 | CCn1cc2c(nc(NC(=O)Cc3ccc4ccccc4c3)n3nc(-c4ccco4)nc23)n1 | 185 nM | 10400 nM | 36.3 nM | 18.4 nM
21 | O=C(Cc1cccc2ccccc12)Nc1nc2nn(CCCc3ccccc3)cc2c2nc(-c3ccco3)nn12 | 710 nM | > 100000 nM | 343 nM | 305 nM
